Assay results from patent US20090305994A1, “Compounds Modulating Vegf Receptor and Uses Thereof” (priority 2005, published 2009).

Tests used:
ERK1/2 = ERK1/2 activation in BAEC (western blot); type: cell-based, bovine
Description: Effect of QK and VEGF15 on ERK1/2 activation. Serum deprived BAEC were treated with QK (a) or with VEGF 15 (b) in absence or in presence of VEGF165 (100 ng/ml) for 15 minutes at 37° C. and then dissolved in RIPA-SDS buffer. Total ERK1/2 and the phosphorylated form of ERK1/2 were visualized by specific antibodies.
Western blot. Cells were plated on six-well dishes and serum starved overnight. On the next day, cells were treated with different amount of peptide in absence or in presence of VEGF165 for 15 minutes at 37° C. and then dissolved in RIPA-SDS buffer (50 mM Tris-HCl (pH 7.5), 150 mM NaCl, 1% NP-40, 0.25% deoxycholate, 9.4 mg/50 ml sodium orthovanadate, […]). In some experiments, total KDR and Flt-1 were immunoprecipitated from an equal amount of whole-cell protein extracts using protein A/G agarose beads conjugated with antibodies raised against total KDR or Flt-1 (R&D). Proteins from whole-cell extracts or immunocomplexes were resolved by PAGE and transferred to nitrocellulose. Total extracellular signal-regulated kinase 1 and 2 (ERK1/2), serine-tyrosin phosphorylated ERK1/2, phospho-tyrosine (Cell signaling) and phospho-RB (p-RB) (Santacruz) were visualized by specific antibodies, anti-rabbit HRP-conjugated secondary antibody (Santacruz) and standard chemiluminescence (Pierce).
Activation of the proliferative intracellular pathways. We then explored whether QK is able to start the pathways of endothelial cell activation. It is well established that angiogenesis modulate by VEGF is largely ERK1/2 dependent, leading to DNA synthesis and cell proliferation (7). Accordingly, we assessed the effects of QK on this kinase. […] To verify whether ERK1/2 activation to QK results in cell proliferation, we studied cell proliferation indicators such as cell number, DNA synthesis and cyclin activation.

BAEC = assay: [3H]-thymidine incorporation (DNA synthesis); type: cell-based, bovine; settings: 24 hours
Description: (§1) Effect of QK on cell proliferation. a) DNA synthesis. BAEC were incubated in DMEM with [^3H]-thymidine and QK in absence or in presence of VEGF165 (100 ng/ml). After 24 hours cells were fixed and lysed. Scintillation liquid was added and [^3H]-thymidine incorporation was evaluated. b) Cell proliferation. BAEC were stimulated with the indicated amount of QK in absence or in presence of VEGF165 (100 ng/ml). Cell number was determined at 24 hours after stimulation. c) RB phosphorylation. p-RB was evaluated at 12 and 18 hours after stimulation with QK (10^-6M), VEGF165 (100 ng/ml) and VEGF 15 (10^−6 M).
[^3H]-thymidine incorporation. Cells were serum starved for 24 hours and then incubated in DMEM with [^3H]-thymidine (Amersham) and QK alone (10^−12-10^−6 M) or with a combination of QK and VEGF165. After 24 hours cells were fixed with trichloracetic acid ([…]) and dissolved in NaOH 1M. Scintillation liquid was added and thymidine incorporation was evaluated with a beta counter.

HUVEC = assay: Analysis of caspase 3 activity in HUVEC deprived of FBS; type: cell-based, human; settings: 4 h
Description: HUVE cells (1×10^4/cm2) were incubated in medium without FBS, in the absence or presence of VEGF (20 ng/ml) and QK (5 ng/ml), at 37° C. in a 5% CO2 atmosphere. After 4 h, caspase 3 activity was determined. Results are expressed as mean values of triplicates.
HUVE cells (1×10^4/cm2) were incubated in medium without FBS, in the absence or presence of VEGF (20 ng/ml) and the indicated peptides (20 ng/ml), at 37° C. in a 5% CO2 atmosphere. After 4 h, caspase 3 activity was determined. Results are expressed as mean values of triplicates.
(§2) Analysis of caspase 3 activity—Cells (2×104) were lysed in a buffer containing Hepes 50 mM, DTT 1 mM, EDTA 0.1 mM, NP-40 0.1%, CHAPS 0.1% and protein quantitation determined. Protein aliquots (20 μg) were incubated with 20 μM Ac-DEVD-AMC (Pharmingen, San Diego, Calif.) in a buffer containing Hepes 50 mM, DTT 1 mM, EDTA 0.1 mM, NP-40 0.1%, CHAPS 0.1%, at 37° C. for 3 h. Caspase 3 activity was determined in the cytosolic extracts by analysing the release of 7-amino-4-methylcoumarin (AMC) from N-acetyl-DEVD-AMC (Thornberry N A, et al. Nature 1992; 356:768-74); the release of AMC was monitored in a spectrofluorometer with an excitation wavelength of 380 nm and emission wavelength of 440 nm.
as §2, with “356: 768-74);” for “356:768-74);”

Human endothelial cells = assay: Angiogenesis in vitro assay (Angiokit, tubule formation, CD31 staining); type: cell-based; settings: eleventh day
Description: In vitro angiogenic properties of QK. Human endothelial cells were co-cultured with other human cells in a specially designed medium in a 24 well plate. Every three days, QK alone or a combination of QK and VEGF165 (100 ng/ml) was added to the cultures. On the eleventh day, cells were fixed with ice cold 70% ethanol and tubule formation was visualized by staining for anti-human CD31 (PECAM-1).
Angiogenesis in vitro assay. Human endothelial cells were co-cultured with other human cells in a specially designed medium (Angiokit, TCS CellWorks), in a 24 well plates. Every three days, QK in absence or in presence of VEGF165 was added to the cultures. VEGF and suramine (20 μM) were used as positive and negative controls respectively. […] On the eleventh day, cells were fixed with ice cold 70% ethanol and tubule formation was visualized by staining for anti-human CD31 (PECAM-1). Results were scored with the image analysis software, Angiosys software (TCS CellWorks).
In vitro angiogenesis assay. […] Tubule formation was evaluated by positive staining for CD31/PECAM-1, an intercellular adhesion molecule involved in leucocytes diapedesis. We determined the number of cell junctions corrected by the total tubules length.

RB = RB phosphorylation (western blot); type: cell-based, bovine; settings: 12 and 18 hours; QK 10^-6 M, VEGF165 100 ng/ml, VEGF 15 10^-6 M
Description: as §1
Cells proliferation assay. Cells were seeded at a density of 10000 per well in six well plates, serum starved overnight and then stimulated with QK (10-12 to 10^−6 M) in absence or in presence of VEGF165. Cell number was determined at 24 hours after stimulation. The p-RB, was evaluated by western blot 12 and 18 hours after stimulation with QK (10^−6 M), VEGF165 and VEGF 15 (10^−6 M).

For KLTWQELYQLKYKGI [QK], the “ERK1/2 activation in presence of VEGF” value (ERK1/2; BAEC, with VEGF165 100 ng/ml, 15 minutes) was “additive to VEGF”, the ERK1/2 activation (ERK1/2; serum deprived BAEC, 15 minutes at 37° C.) was “leaded to ERK1/2 activation in a dose dependent fashion” and the “DNA synthesis ([3H]-thymidine incorporation)” value (BAEC; peptide alone) was “increased DNA synthesis at any dosages”. For the same sequence, the “DNA synthesis in presence of VEGF” value (BAEC; with VEGF165 100 ng/ml) was “the effect was enhanced in presence of VEGF”, the “rescue from apoptosis in presence of VEGF (caspase 3)” value (HUVEC; QK 5 ng/ml with VEGF 20 ng/ml) was “enhanced the response of HUVEC to VEGF” and the “rescue of HUVEC from apoptosis (caspase 3 activation)” value (HUVEC; VEGF 20 ng/ml, QK 5 ng/ml) was “showed a biological effect similar to VEGF”. The “formation of new connections” value (Human endothelial cells; peptide alone) was “induced the formation of new connections in a dose dependent manner”, the “formation of new connections in presence of VEGF165” value (Human endothelial cells; with VEGF165 100 ng/ml) was “enhanced the response to VEGF165” and the “phosphorylation of the cyclin RB” value (RB) was “enhanced phosphorylation of the cyclin RB”.
